Reference: patent US12084430B2, “Tricyclic urea compounds as JAK2 V617F inhibitors” (Incyte Corporation, priority 2022, dated 2024)

Experiments:
[1] = In vitro intrinsic clearance; format: in vitro ADME; settings: human liver microsomes, 1 μM
Method in brief: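 Compound at 1 μM was incubated at 37° C with human liver microsomes (0.5 mg protein/mL) and 2 mM NADPH in pH 7.4 phosphate buffer, sampled at 0–30 min and analysed by LC-MS/MS. CLint was derived from t1/2 of depletion and scaled to human hepatic clearance with the well-stirred model (Q 20 mL·min^−1·kg^−1).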

TRKA [2] = assay: TRKA enzymatic assay; format: biochemical
Method in brief: (§1)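 The reaction mix held 0.58 nM TRKA, 1 mM ATP and 500 nM biotinylated TK substrate in 50 mM HEPES pH 7.0 with 10 mM MgCl2, 1 mM DTT and 0.5% DMSO, run 60 min at room temperature. Product was detected by TR-FRET as the 665/620 nm ratio. IC50 was fitted from % control activity versus log concentration, using DMSO-only and no-ATP wells as controls.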

TRKA [3] = molecular target: TRKA (Homo sapiens, UniProt P04629); assay: TRKA enzymatic assay; format: biochemical; settings: 1 mM ATP
Method in brief: as §1

[4] = system: STAT5 (Tyr694) phosphorylation in SET-2 cells; assay: STAT5 (Tyr694) phosphorylation cell based assay; settings: Homo sapiens, pSTAT5, 2 hours, read-out: SET2 IC50
Method in brief: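 SET-2 cells (7×10^6 cells/mL, RPMI 10% FBS, 0.5% DMSO) treated with compound 2 h at 37 °C, then lysed 90 min at RT. Phospho-STAT5 (Tyr694) detected by HTRF sandwich antibodies after 24 h at RT, 665/620 ratio. IC50 from percent control activity versus log concentration, DMSO and high-concentration control compound as references.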

Chain of TRKA (Homo sapiens, UniProt P04629) (P04629 33-796, species assumed): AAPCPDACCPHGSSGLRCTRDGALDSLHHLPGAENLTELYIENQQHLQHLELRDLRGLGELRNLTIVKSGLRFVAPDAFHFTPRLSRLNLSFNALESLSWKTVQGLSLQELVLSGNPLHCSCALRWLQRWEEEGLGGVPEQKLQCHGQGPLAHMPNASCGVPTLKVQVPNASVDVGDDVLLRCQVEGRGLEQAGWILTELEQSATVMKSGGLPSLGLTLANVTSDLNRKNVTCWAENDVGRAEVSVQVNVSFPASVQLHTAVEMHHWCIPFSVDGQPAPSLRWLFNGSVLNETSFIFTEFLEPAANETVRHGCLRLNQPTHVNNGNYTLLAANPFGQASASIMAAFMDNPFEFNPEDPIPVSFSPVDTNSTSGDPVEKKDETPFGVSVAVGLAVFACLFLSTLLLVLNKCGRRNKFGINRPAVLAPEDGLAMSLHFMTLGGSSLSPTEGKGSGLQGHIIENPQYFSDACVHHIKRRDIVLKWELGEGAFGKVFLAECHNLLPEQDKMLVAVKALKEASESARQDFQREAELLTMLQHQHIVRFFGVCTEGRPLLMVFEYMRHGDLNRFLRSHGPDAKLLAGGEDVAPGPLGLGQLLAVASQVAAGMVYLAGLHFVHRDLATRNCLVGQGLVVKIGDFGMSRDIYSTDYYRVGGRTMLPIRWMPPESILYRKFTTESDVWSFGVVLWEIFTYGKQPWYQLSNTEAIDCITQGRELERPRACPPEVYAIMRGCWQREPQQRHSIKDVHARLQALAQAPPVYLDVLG

| SMILES | h-IntCL [1] | Selectivity TRKA/JH2 V617F (TRKA [2]) | IC50 (TRKA [3]) [µM] | IC50 [4] [µM] |
| --- | --- | --- | --- | --- |
| [2H]C([2H])([2H])n1ncc2cc(-c3c(-c4cn(C([2H])([2H])C([2H])([2H])[2H])nc4F)[nH]c4ncc5c(c34)n([C@@H]3CC[C@@H](NC(=O)OC)C3)c(=O)n5C([2H])([2H])[2H])ccc21 [Example 15, Methyl ((1R,3R)-3-(7-(1-(ethyl-d5)-3-fluoro-1H-pyrazol-4-yl)-3-(methyl-d3)-8-(1-(methyl-d3)-1H-indazol-5-yl)-2-oxo-3,6-dihydroimidazo[4,5-d]pyrrolo[2,3-b]pyridin-1(2H)-yl)cyclopentyl)carbamate] | ‡ ‡ (h-IntCL of ≥0.7 L/h/kg to ≤1 L/h/kg) | ****** (selectivity of >12500-fold) | 1.25 to 2.5 | ≤ 0.3 |
| [2H]C([2H])([2H])n1ncc2cc(-c3c(-c4cn(C([2H])(C([2H])([2H])[2H])C([2H])([2H])[2H])nc4F)[nH]c4ncc5c(c34)n([C@@H]3CC[C@@H](NC(=O)OC)C3)c(=O)n5C([2H])([2H])[2H])ccc21 [Example 21, Methyl ((1R,3R)-3-(7-(3-fluoro-1-(propan-2-yl-d7)-1H-pyrazol-4-yl)-3-(methyl-d3)-8-(1-(methyl-d3)-1H-indazol-5-yl)-2-oxo-3,6-dihydroimidazo[4,5-d]pyrrolo[2,3-b]pyridin-1(2H)-yl)cyclopentyl)carbamate] | ‡ ‡ (h-IntCL of ≥0.7 L/h/kg to ≤1 L/h/kg) | ****** (selectivity of >12500-fold) | > 2.5 | ≤ 0.3 |
| [2H]C([2H])([2H])n1cc(-c2[nH]c3ncc4c(c3c2-c2ccc3c(c2)COC3(C)C)n([C@@H]2CC[C@@H](NC(=O)OC)C2)c(=O)n4C([2H])([2H])[2H])c(F)n1 [Example 8, Methyl ((1R,3R)-3-(8-(1,1-dimethyl-1,3-dihydroisobenzofuran-5-yl)-7-(3-fluoro-1-(methyl-d3)-1H-pyrazol-4-yl)-3-(methyl-d3)-2-oxo-3,6-dihydroimidazo[4,5-d]pyrrolo[2,3-b]pyridin-1(2H)-yl)cyclopentyl)carbamate] | ‡ (h-IntCL of <0.7 L/h/kg) | ****** (selectivity of >12500-fold) | > 2.5 | ≤ 0.3 |
| [2H]C([2H])([2H])Oc1ccc(-c2c(-c3cn(C([2H])([2H])[2H])nc3F)[nH]c3ncc4c(c23)n([C@@H]2CC[C@@H](NC(=O)OC)C2)c(=O)n4C([2H])([2H])[2H])cc1 [Example 9, Methyl ((1R,3R)-3-(7-(3-fluoro-1-(methyl-d3)-1H-pyrazol-4-yl)-8-(4-(methoxy-d3)phenyl)-3-(methyl-d3)-2-oxo-3,6-dihydroimidazo[4,5-d]pyrrolo[2,3-b]pyridin-1(2H)-yl)cyclopentyl)carbamate] | ‡ ‡ (h-IntCL of ≥0.7 L/h/kg to ≤1 L/h/kg) | ***** (selectivity of >5000-fold to ≤12500-fold) | 1.25 to 2.5 | ≤ 0.3 |
